PubChem BioAssay (NCI)
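Grown in 96-well plates, cells were treated for 48 hours with each compound at five concentrations. Insufficient inhibition: endpoint recorded as highest concentration tested. TGI marks complete inhibition of growth.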

Legend:
Assay in all cases: growth of human tumour cells (NCI), 48 h
[1] = tested on: OVCAR-4 ovarian
[2] = tested on: OVCAR-8 ovarian
[3] = tested on: OVCAR-5 ovarian
[4] = tested on: T-47D breast
[5] = tested on: DU-145 prostate
[6] = tested on: COLO 205 colon
[7] = tested on: MDA-MB-435
[8] = tested on: EKVX NSCLC
[9] = tested on: MDA-N
[10] = tested on: PC-3 prostate
[11] = tested on: HT29 colon
[12] = tested on: SF-539 CNS
[13] = tested on: CCRF-CEM leukemia
[14] = tested on: LOX IMVI melanoma
[15] = tested on: SNB-75 CNS
[16] = tested on: MALME-3M melanoma
[17] = tested on: ACHN renal
[18] = tested on: UO-31 renal
[19] = tested on: NCI-H460 lung
[20] = tested on: SK-OV-3 ovarian
[21] = tested on: SF-268 CNS
[22] = tested on: HCT-116 colon
[23] = tested on: UACC-257 melanoma
[24] = tested on: HCT-15 colon
[25] = tested on: NCI-H23 lung
[26] = tested on: NCI-H226 lung
[27] = tested on: MDA-MB-231 breast
[28] = tested on: HCC-2998 colon
[29] = tested on: NCI/ADR-RES ovarian
[30] = tested on: KM12 colon
[31] = tested on: A498 renal
[32] = tested on: MCF7 breast
[33] = tested on: SW-620 colon
[34] = tested on: SK-MEL-28 melanoma
[35] = tested on: RXF 393 renal
[36] = tested on: A549 NSCLC
[37] = tested on: U251 CNS
[38] = tested on: UACC-62 melanoma
[39] = tested on: SF-295 CNS
[40] = tested on: HL-60(TB) leukemia
[41] = tested on: NCI-H522 lung
[42] = tested on: SNB-19 CNS
[43] = tested on: OVCAR-3 ovarian
[44] = tested on: HOP-62 NSCLC
[45] = tested on: TK-10 renal
[46] = tested on: SK-MEL-5 melanoma
[47] = tested on: HS 578T breast
[48] = tested on: IGROV1 ovarian
[49] = tested on: CAKI-1 renal
[50] = tested on: BT-549 breast
[51] = tested on: SK-MEL-2 melanoma
[52] = tested on: M14 melanoma
[53] = tested on: HOP-92 NSCLC
[54] = tested on: 786-0 renal
[55] = tested on: SN12C renal
[56] = tested on: K-562 leukemia

OC(CCN1CCN(CCOC(c2ccccc2)c2ccccc2)CC1)c1ccccc1 (stereo not given)
TGI [1]: > 100 µM | TGI [2]: 33 µM | TGI [3]: > 100 µM | TGI [4]: 48.8 µM | TGI [5]: > 100 µM | TGI [6]: 29.1 µM | TGI [7]: 38.3 µM | TGI [8]: 45.8 µM | TGI [9]: 36.8 µM | TGI [10]: 65.5 µM | TGI [11]: 33.5 µM | TGI [12]: 36.8 µM | TGI [13]: > 100 µM | TGI [14]: 34.2 µM | TGI [15]: > 100 µM | TGI [16]: 32.6 µM | TGI [17]: > 100 µM | TGI [18]: 44 µM | TGI [19]: 35.7 µM | TGI [20]: > 100 µM | TGI [21]: 57 µM | TGI [22]: 34.3 µM | TGI [23]: 34.8 µM | TGI [24]: 37.1 µM | TGI [25]: 63.1 µM | TGI [26]: 88.2 µM | TGI [27]: 33.6 µM | TGI [28]: 28.9 µM | TGI [29]: 73.1 µM | TGI [30]: 51.1 µM | TGI [31]: 21.6 µM | TGI [32]: 47.4 µM | TGI [33]: > 100 µM | TGI [34]: 34.4 µM | TGI [35]: 48.6 µM | TGI [36]: > 100 µM | TGI [37]: 36 µM | TGI [38]: 30.2 µM | TGI [39]: 38.8 µM | TGI [40]: 44.3 µM | TGI [41]: 32.7 µM | TGI [42]: 88.6 µM | TGI [43]: 81.1 µM | TGI [44]: 44.3 µM | TGI [45]: 59.8 µM | TGI [46]: 29.6 µM | TGI [47]: 45 µM | TGI [48]: 59.3 µM | TGI [49]: > 100 µM | TGI [50]: 60.5 µM | TGI [51]: 31.6 µM | TGI [52]: 34.1 µM | TGI [53]: 75.8 µM | TGI [54]: 33.8 µM | TGI [55]: 82.3 µM

CC(=O)C(CN1C(=O)c2ccccc2C1=O)C(C)=O
TGI [1]: > 100 µM | TGI [2]: > 100 µM | TGI [3]: > 100 µM | TGI [4]: > 100 µM | TGI [5]: > 100 µM | TGI [6]: > 100 µM | TGI [7]: > 100 µM | TGI [8]: > 100 µM | TGI [9]: > 100 µM | TGI [10]: > 100 µM | TGI [11]: > 100 µM | TGI [12]: > 100 µM | TGI [15]: > 100 µM | TGI [17]: > 100 µM | TGI [18]: > 100 µM | TGI [19]: > 100 µM | TGI [20]: > 100 µM | TGI [21]: > 100 µM | TGI [22]: > 100 µM | TGI [56]: > 100 µM | TGI [23]: > 100 µM | TGI [24]: > 100 µM | TGI [25]: > 100 µM | TGI [26]: > 100 µM | TGI [27]: > 100 µM | TGI [28]: > 100 µM | TGI [31]: > 100 µM | TGI [32]: > 100 µM | TGI [33]: > 100 µM | TGI [34]: > 100 µM | TGI [35]: 53.8 µM | TGI [36]: > 100 µM | TGI [37]: > 100 µM | TGI [38]: > 100 µM | TGI [39]: > 100 µM | TGI [41]: > 100 µM | TGI [42]: > 100 µM | TGI [43]: > 100 µM | TGI [44]: > 100 µM | TGI [45]: > 100 µM | TGI [46]: > 100 µM | TGI [47]: > 100 µM | TGI [48]: > 100 µM | TGI [49]: > 100 µM | TGI [50]: > 100 µM | TGI [51]: > 100 µM | TGI [52]: > 100 µM | TGI [53]: > 100 µM | TGI [54]: > 100 µM | TGI [55]: > 100 µM
